Experimental data taken from US20130261066A1, “TREATMENT OF INFLAMMATORY BOWEL DISEASES USING A TRIPEPTIDE” (THE RESEARCH FOUNDATION OF STATE UNIVERSITY OF NEW YORK, priority 2010, published 2013).

Legend:
DSS-induced colitis = DSS-induced colitis in mice, MC12 40 or 80 μg/mouse ip (Example 1); assay type: in vivo
Protocol: Female C57BL/6 and SJL/J mice (Taconic, Hudson, N.Y.), 7-9 weeks old, were kept under controlled temperature (25° C.) with a 12/12-hour light-dark cycle and free access to standard diet and drinking water. The mice were allowed to acclimate for 7 days before the start of experiments.
The mice received 2% dextran sulfate sodium (DSS, MW 36,000 to 50,000, MP Biomedicals, Solon, Ohio) in drinking water for 7 days; control mice received regular drinking water. During the period when DSS was administered, treated mice were given MC12 40 or 80 μg/mouse intraperitoneally (i.p.) whereas the control group was given saline i.p. The mice were weighed and monitored for rectal bleeding or prolapse daily. All mice were euthanized at the end of the study. Blood samples were collected and colons were dissected and their length was measured. The middle part of colon was fixed in 4% neutralized formalin and the rest was frozen for molecular analyses.
Paraffin-embedded tissue sections were stained with hematoxylin and eosin (H&E). In these sections, the histological score was determined based on epithelial denudation, loss of crypts, ulceration, edema and leukocyte infiltration using criteria that have been described previously (see Perretti, F. et al., 2009, Nat Rev Immunol 9:62-70)

[1] = system: NF-κB in NCM 460 cells (normal colon epithelial cells); assay: NF-κB DNA binding activity (EMSA) in DSS-treated NCM460 cells; assay type: cell-based
IFN-γ = assay: Colon cytokine mRNA by real-time PCR, DSS mice; assay type: in vivo; conditions: MC-12 at either dose (5 or 25 mg/kg)
Protocol: (§1) Expression of inflammatory cytokines TNF-α, IFN-γ, IL-1β, IL-6 and IL-10 in the colon was determined by measuring corresponding mRNA levels using real-time PCR. About 100 mg colon tissue were placed in 1 ml of cold Trizol (Invitrogen Life Technologies, Carlsbad, Calif.), immediately homogenized with a rotor power homogenizer, and RNA was extracted according to the manufacturer's instructions. Total RNA was retrotranscribed with M-MLV reverse transcriptase (Invitrogen Life Technologies, Carlsbad, Calif.) using random primers. Real-time quantitative PCR was performed in a CFD-3200 Opticon detector (BioRad, Hercules, Calif., USA) using QuantiTect SYBR Green PCR Kits (Qiagen, Valencia Calif., USA). The PCR cycling conditions were: 40 cycles of 60 seconds at 94° C., 30 seconds at 51.4° C. and 30 seconds at 72° C. PCR primers (forward and reverse primers) were designed based on published sequences: TNF-α: AGGCTGCCCCGACTACGT (SEQ ID NO:12) and […] (SEQ ID NO:13); IFN-γ: CAGCAACAGCAAGGCGAAA (SEQ ID NO:14) and CTGGACCT GTGGGTTGTTGAC (SEQ ID NO:15); IL-1β: […] (SEQ ID NO:16) and […] (SEQ ID NO:17); IL-6: […] (SEQ ID NO:18) and […] (SEQ ID NO:19); […]: […] (SEQ ID NO:20) and […] (SEQ ID NO:21); β-actin: […] (SEQ ID NO:20) and […] (SEQ ID NO:21). Relative expression levels of mRNA were normalized to β-actin.

IL-1β = assay: Colon cytokine mRNA by real-time PCR, DSS mice; assay type: in vivo; conditions: MC-12 at either dose (5 or 25 mg/kg)
Protocol: as §1

IL-10 = assay: Colon cytokine mRNA by real-time PCR, DSS mice; assay type: in vivo; conditions: MC-12 at either dose (5 or 25 mg/kg)
Protocol: as §1

IL-6 = assay: Colon cytokine mRNA by real-time PCR, DSS mice; assay type: in vivo; conditions: MC-12 at either dose (5 or 25 mg/kg)
Protocol: as §1

TNF-α = assay: Colon cytokine mRNA by real-time PCR, DSS mice; assay type: in vivo; conditions: MC-12 at either dose (5 or 25 mg/kg)
Protocol: as §1

myeloperoxidase (MPO) = assay: Myeloperoxidase activity in colon tissue of DSS-treated mice; assay type: in vivo
Protocol: To further assess the effect of MC12 on the inflammatory changes associated with DSS induced colitis, myeloperoxidase (MPO) activity and cytosolic phospholipase A2 (cPLA2) in tissue samples was determined.
MPO activity is an indicator of the degree of acute inflammation in a given tissue. MPO activity was measured using a commercial kit and following the instructions of the manufacturer (Invitrogen, Eugene, Oreg.). Briefly, a portion of colon tissue was homogenized in PBS and centrifuged at 10,000×g for 15 min and 50 μl of supernatant from each sample were added into a 96-well microplate. 50 μl of 2×APF working solution was added to all sample and standard wells and the plate was incubated at room temperature for 30 min. The reaction was stopped by adding 10 μl of 10× chlorination inhibitor. The fluorescence intensity was measured using a Multiplate Reader (Molecular Devices) at excitation at 485 nm, emission at 530 nm.
To assess the effect of MC-12 on the inflammatory changes associated with DSS-induced colitis, myeloperoxidase activity in tissue samples was determined as above.

[2] = 2% DSS, MC12 40 or 80 μg/mouse ip

Gln-Ala-Trp (QAW) [MC12] was tested, and the “DSS-induced colonic inflammation (H&E histology)” value (DSS-induced colitis; 40 μg per mouse ip) was “significantly decreased DSS-induced colonic inflammation”, the “DSS-induced colonic inflammation (H&E histology)” value (DSS-induced colitis; 80 μg per mouse ip) was “also decreased DSS-induced colonic inflammation” and the weight loss (DSS-induced colitis; 2% DSS 7 days, MC12 40 or 80 μg/mouse ip) was “dose-dependent reduction in weight loss”. For the same substance, the “colon length (DSS-induced reduction)” value (DSS-induced colitis; [2]) was “prevented this reduction in colon length in a dose-dependent manner”, the histological colitis score (DSS-induced colitis; [2]) was “reduced the histological colitis score dose-dependently” and the “change in body weight” value (DSS-induced colitis; 2% DSS, higher dose 80 μg/day ip, day 7) was “essentially no change in their weight”. For the same substance, the “histological colitis score, significance of reduction” value (DSS-induced colitis; higher MC12 dose (80 μg)) was “statistically significant”, the “DSS-induced NF-κB-DNA binding activity (NF-κB activation)” value (shortened to “DSS-induced NF-κB-DNA binding activity”) ([1]; 30 μM, listed as MC 12) was “significantly blocked this effect” and the “DSS-induced NF-κB-DNA binding activity” value ([1]; 30 μM, listed as MC-12) was “essentially eliminated NF-κB activation”. For the same substance, the “DSS-induced NF-κB-DNA binding activity” value ([1]; 300 μM, listed as MC 12) was “significantly blocked this effect”, the “DSS-induced NF-κB-DNA binding activity” value ([1]; 300 μM, listed as MC-12) was “essentially eliminated NF-κB activation” and the “IFN-γ mRNA level in colon” value (IFN-γ) was “below baseline”. The “IL-1β mRNA level in colon” value (IL-1β) was “essentially normalized”, the “IL-10 mRNA level in colon” value (IL-10) was “below baseline” and the “IL-6 mRNA level in colon” value (IL-6) was “below baseline”. For the same substance, the “TNF-α mRNA level in colon” value (TNF-α) was “essentially normalized”, the MPO activity (myeloperoxidase (MPO); MC12 80 μg dose) was “essentially normalized” and the MPO activity (myeloperoxidase (MPO); MC12 40 or 80 μg) was “significant (p<0.01) and concentration-dependent reduction in MPO activity”. For the same substance, the MPO activity (myeloperoxidase (MPO); MC-12 25 mg/kg) was “essentially normalized” and the MPO activity (myeloperoxidase (MPO); MC-12 5 or 25 mg/kg) was “significant (p<0.01) and concentration-dependent reduction in MPO activity”.
